In patent publication US10544147B2, “Purine inhibitors of human phosphatidylinositol 3-kinase delta” (MERCK SHARP & DOHME CORP., priority 2016, dated 2020):

How the values were obtained:
PI3Kdelta = PI3Kdelta (Homo sapiens (Human), UniProt O00329); test: HTRF PI3K biochemical assay, delta isoform; details: 0.3 nM enzyme, 100 uM ATP, 50 uM PIP2; form screened (neutral or TFA salt)
PI3Kalpha = PI3Kalpha (Homo sapiens (Human), UniProt P42336); test: HTRF PI3K biochemical assay, alpha isoform (selectivity versus delta); details: ratio PI3K-alpha IC50 value/PI3K-delta IC50 value
Chain of PI3Kalpha (P42336 whole entry, canonical isoform): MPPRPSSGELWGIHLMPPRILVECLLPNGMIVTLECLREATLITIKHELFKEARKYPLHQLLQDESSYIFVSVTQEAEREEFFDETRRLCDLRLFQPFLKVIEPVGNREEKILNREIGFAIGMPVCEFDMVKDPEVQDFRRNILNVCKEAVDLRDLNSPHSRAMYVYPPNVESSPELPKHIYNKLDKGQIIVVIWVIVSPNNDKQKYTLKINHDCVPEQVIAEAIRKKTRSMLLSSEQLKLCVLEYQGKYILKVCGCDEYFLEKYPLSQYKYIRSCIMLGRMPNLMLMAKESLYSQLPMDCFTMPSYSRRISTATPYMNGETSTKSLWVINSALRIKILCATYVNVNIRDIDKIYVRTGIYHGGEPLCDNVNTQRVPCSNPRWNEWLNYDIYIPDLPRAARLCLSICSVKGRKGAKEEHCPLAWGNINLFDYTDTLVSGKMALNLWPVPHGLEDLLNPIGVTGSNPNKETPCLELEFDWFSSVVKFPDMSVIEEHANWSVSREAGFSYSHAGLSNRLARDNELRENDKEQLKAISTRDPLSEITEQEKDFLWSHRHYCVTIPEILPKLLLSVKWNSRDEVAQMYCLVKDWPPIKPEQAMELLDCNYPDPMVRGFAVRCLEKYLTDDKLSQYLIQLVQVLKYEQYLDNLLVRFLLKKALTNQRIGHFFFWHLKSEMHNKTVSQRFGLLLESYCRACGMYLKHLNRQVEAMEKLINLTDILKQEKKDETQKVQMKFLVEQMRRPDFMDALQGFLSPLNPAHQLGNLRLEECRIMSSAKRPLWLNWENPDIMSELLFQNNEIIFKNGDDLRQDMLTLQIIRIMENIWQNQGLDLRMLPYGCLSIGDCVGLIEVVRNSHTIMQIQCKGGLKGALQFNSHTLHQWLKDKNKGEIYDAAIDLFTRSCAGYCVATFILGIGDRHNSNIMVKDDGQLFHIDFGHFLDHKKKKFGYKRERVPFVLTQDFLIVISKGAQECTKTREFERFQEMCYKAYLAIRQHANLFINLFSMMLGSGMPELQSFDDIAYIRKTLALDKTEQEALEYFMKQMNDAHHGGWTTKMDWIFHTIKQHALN
Chain of PI3Kalpha (P27986 whole entry partner, canonical isoform): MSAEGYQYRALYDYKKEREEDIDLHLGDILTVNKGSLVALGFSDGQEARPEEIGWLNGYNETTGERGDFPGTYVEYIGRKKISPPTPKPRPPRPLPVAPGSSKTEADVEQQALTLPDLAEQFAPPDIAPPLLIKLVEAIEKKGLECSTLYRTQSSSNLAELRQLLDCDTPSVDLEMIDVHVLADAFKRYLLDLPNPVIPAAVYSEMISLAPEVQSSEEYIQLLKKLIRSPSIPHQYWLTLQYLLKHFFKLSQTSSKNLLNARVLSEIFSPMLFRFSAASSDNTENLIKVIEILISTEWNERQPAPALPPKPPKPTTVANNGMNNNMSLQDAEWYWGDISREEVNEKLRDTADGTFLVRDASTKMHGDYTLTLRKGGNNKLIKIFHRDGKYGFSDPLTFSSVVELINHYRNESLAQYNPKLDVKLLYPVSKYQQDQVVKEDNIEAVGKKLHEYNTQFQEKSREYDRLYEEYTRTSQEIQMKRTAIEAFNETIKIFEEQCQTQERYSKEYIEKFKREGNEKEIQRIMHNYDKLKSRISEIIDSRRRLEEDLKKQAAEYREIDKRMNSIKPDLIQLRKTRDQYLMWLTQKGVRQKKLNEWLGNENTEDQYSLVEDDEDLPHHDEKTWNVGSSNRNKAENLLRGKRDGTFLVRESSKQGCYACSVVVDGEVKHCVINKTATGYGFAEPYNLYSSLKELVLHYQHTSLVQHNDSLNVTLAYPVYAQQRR

Chain of PI3Kdelta (O00329 whole entry, canonical isoform): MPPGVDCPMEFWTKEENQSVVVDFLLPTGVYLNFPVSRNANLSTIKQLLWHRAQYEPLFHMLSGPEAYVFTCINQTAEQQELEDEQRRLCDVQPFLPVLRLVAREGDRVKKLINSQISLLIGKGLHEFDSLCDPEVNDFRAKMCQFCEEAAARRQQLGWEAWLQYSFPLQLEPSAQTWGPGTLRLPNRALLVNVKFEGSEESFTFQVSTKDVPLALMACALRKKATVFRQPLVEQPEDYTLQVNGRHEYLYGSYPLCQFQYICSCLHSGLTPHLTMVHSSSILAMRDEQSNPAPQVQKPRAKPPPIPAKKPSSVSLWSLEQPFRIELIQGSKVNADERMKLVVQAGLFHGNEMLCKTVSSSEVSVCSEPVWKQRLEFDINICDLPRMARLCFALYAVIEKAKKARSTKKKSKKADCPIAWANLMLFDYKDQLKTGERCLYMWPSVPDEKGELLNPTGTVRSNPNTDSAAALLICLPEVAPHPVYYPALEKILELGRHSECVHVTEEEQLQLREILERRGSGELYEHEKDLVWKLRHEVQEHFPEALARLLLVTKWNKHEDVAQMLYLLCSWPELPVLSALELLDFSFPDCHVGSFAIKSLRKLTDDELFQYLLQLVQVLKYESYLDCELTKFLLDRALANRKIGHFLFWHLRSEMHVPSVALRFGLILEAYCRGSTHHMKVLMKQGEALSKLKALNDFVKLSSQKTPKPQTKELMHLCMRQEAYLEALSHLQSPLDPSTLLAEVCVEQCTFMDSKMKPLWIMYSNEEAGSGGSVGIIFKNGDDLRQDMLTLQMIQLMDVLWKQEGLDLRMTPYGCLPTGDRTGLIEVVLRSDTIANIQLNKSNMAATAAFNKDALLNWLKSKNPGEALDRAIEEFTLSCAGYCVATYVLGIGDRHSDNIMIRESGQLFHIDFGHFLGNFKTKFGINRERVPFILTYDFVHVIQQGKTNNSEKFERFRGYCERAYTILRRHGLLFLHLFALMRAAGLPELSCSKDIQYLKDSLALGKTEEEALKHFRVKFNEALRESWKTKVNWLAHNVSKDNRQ
Chain of PI3Kdelta (P27986 whole entry partner, canonical isoform): as the sequence (P27986 whole entry partner, canonical isoform) above

Row | SMILES | IC50 (PI3Kdelta) | Relative Selectivity versus PI3Kalpha (PI3Kalpha)
1 | CCn1c(-c2cnc(C)nc2)nc2c(-c3cnc4c(c3)C(C)(N3CC(C)(C#N)C3)C(=O)N4)ncnc21 (single isomer, unassigned) [Compound 2-53, (S or R)-1-(5-(9-ethyl-8-(2-methylpyrimidin-5-yl)-9H-purin-6-yl)-3-methyl-2-oxo-2,3-dihydro-1H-pyrrolo[2,3-b]pyridin-3-yl)-3-methylazetidine-3-carbonitrile] | 4 nM | >10
2 | CCn1c(-c2cnc(C)nc2)nc2c(-c3cnc4c(c3)C(C)(N3CC(C)(C#N)C3)C(=O)N4)ncnc21 (single isomer, unassigned) [Compound 2-54, (S or R)-1-(5-(9-ethyl-8-(2-methylpyrimidin-5-yl)-9H-purin-6-yl)-3-methyl-2-oxo-2,3-dihydro-1H-pyrrolo[2,3-b]pyridin-3-yl)-3-methylazetidine-3-carbonitrile] | 168 nM | >10
3 | CCn1c(-c2cnc(C)nc2)nc2c(-c3ccc4c(c3)C(C)(OCC(C)(C)F)C(=O)N4)ncnc21 (single isomer, unassigned) [Compound 2-55, (R or S)-5-(9-ethyl-8-(2-methylpyrimidin-5-yl)-9H-purin-6-yl)-3-(2-fluoro-2-methylpropoxy)-3-methylindolin-2-one] | 200 nM | >10
4 | CCn1c(-c2cnc(C)nc2)nc2c(-c3ccc4c(c3)C(C)(OCC(C)(C)F)C(=O)N4)ncnc21 (single isomer, unassigned) [Compound 2-56, (R or S)-5-(9-ethyl-8-(2-methylpyrimidin-5-yl)-9H-purin-6-yl)-3-(2-fluoro-2-methylpropoxy)-3-methylindolin-2-one] | 3 nM | >10
5 | CCn1c(-c2cnc(C)nc2)nc2c(-c3ccc4c(c3)C(C)(OCC3CC3)C(=O)N4)ncnc21 (single isomer, unassigned) [Compound 2-57, (R or S)-3-(cyclopropylmethoxy)-5-(9-ethyl-8-(2-methylpyrimidin-5-yl)-9H-purin-6-yl)-3-methylindolin-2-one] | 264 nM | >10
6 | CCn1c(-c2cnc(C)nc2)nc2c(-c3ccc4c(c3)C(C)(OCC3CC3)C(=O)N4)ncnc21 (single isomer, unassigned) [Compound 2-58, (R or S)-3-(cyclopropylmethoxy)-5-(9-ethyl-8-(2-methylpyrimidin-5-yl)-9H-purin-6-yl)-3-methylindolin-2-one] | 7 nM | >10
7 | Cc1ncc(-c2nc3c(-c4cnc5c(c4)C(C)(NCC(C)(C)F)C(=O)N5)ncnc3n2C)cn1 (single isomer, unassigned) [Compound 2-59, (S or R)-5-(9-methyl-8-(2-methylpyrimidin-5-yl)-9H-purin-6-yl)-3-((2-fluoro-2-methylpropyl)amino)-3-methyl-1H-pyrrolo[2,3-b]pyridin-2(3H)-one] | 2 nM | >10
8 | Cc1ncc(-c2nc3c(-c4cnc5c(c4)C(C)(NCC(C)(C)F)C(=O)N5)ncnc3n2C)cn1 (single isomer, unassigned) [Compound 2-60, (S or R)-5-(9-methyl-8-(2-methylpyrimidin-5-yl)-9H-purin-6-yl)-3-((2-fluoro-2-methylpropyl)amino)-3-methyl-1H-pyrrolo[2,3-b]pyridin-2(3H)-one] | 133 nM | 8
9 | CCn1c(-c2cnc(C)nc2)nc2c(-c3ccc4c(c3)C(C)(N3C[C@@H](F)[C@H](F)C3)C(=O)N4)ncnc21 (single isomer, unassigned) [Compound 2-61, 3-(R or S)-((3R,4R)-3,4-difluoropyrrolidin-1-yl)-5-(9-ethyl-8-(2-methylpyrimidin-5-yl)-9H-purin-6-yl)-3-methylindolin-2-one] | 35 nM | >10
10 | CCn1c(-c2cnc(C)nc2)nc2c(-c3ccc4c(c3)C(C)(N3C[C@@H](F)[C@H](F)C3)C(=O)N4)ncnc21 (single isomer, unassigned) [Compound 2-62, 3-(R or S)-((3R,4R)-3,4-difluoropyrrolidin-1-yl)-5-(9-ethyl-8-(2-methylpyrimidin-5-yl)-9H-purin-6-yl)-3-methylindolin-2-one] | 6 nM | >10
11 | CCn1c(-c2cnc(C)nc2)nc2c(-c3ccc4c(c3)C(C)(N3CC(C)(F)C3)C(=O)N4)ncnc21 (single isomer, unassigned) [Compound 2-63, (R or S)-5-(9-ethyl-8-(2-methylpyrimidin-5-yl)-9H-purin-6-yl)-3-(3-fluoro-3-methylazetidin-1-yl)-3-methylindolin-2-one] | 87 nM | >10
12 | CCn1c(-c2cnc(C)nc2)nc2c(-c3ccc4c(c3)C(C)(N3CC(C)(F)C3)C(=O)N4)ncnc21 (single isomer, unassigned) [Compound 2-64, (R or S)-5-(9-ethyl-8-(2-methylpyrimidin-5-yl)-9H-purin-6-yl)-3-(3-fluoro-3-methylazetidin-1-yl)-3-methylindolin-2-one] | 6 nM | >10
13 | CCn1c(-c2cnc(C)nc2)nc2c(-c3ccc4c(c3)C(C)(NCC(C)C)C(=O)N4)ncnc21 (single isomer, unassigned) [Compound 2-65, (R or S)-5-(9-ethyl-8-(2-methylpyrimidin-5-yl)-9H-purin-6-yl)-3-(isobutylamino)-3-methylindolin-2-one] | 79 nM | >10
14 | CCn1c(-c2cnc(C)nc2)nc2c(-c3ccc4c(c3)C(C)(NCC(C)C)C(=O)N4)ncnc21 (single isomer, unassigned) [Compound 2-66, (R or S)-5-(9-ethyl-8-(2-methylpyrimidin-5-yl)-9H-purin-6-yl)-3-(isobutylamino)-3-methylindolin-2-one] | 1 nM | >10
15 | Cc1ncc(-c2nc3c(-c4ccc5c(c4)C(C)(NCC(C)(C)F)C(=O)N5)ncnc3n2C)cn1 (single isomer, unassigned) [Compound 2-67, (R or S)-3-((2-fluoro-2-methylpropyl)amino)-3-methyl-5-(9-methyl-8-(2-methylpyrimidin-5-yl)-9H-purin-6-yl)indolin-2-one] | 344 nM | >10
16 | Cc1ncc(-c2nc3c(-c4ccc5c(c4)C(C)(NCC(C)(C)F)C(=O)N5)ncnc3n2C)cn1 (single isomer, unassigned) [Compound 2-68, (R or S)-3-((2-fluoro-2-methylpropyl)amino)-3-methyl-5-(9-methyl-8-(2-methylpyrimidin-5-yl)-9H-purin-6-yl)indolin-2-one] | 2 nM | >10
17 | Cc1ncc(-c2nc3c(-c4ccc5c(c4)C(C)(NCC(C)(F)F)C(=O)N5)ncnc3n2C)cn1 (single isomer, unassigned) [Compound 2-69, (R or S)-3-((2,2-difluoropropyl)amino)-3-methyl-5-(9-methyl-8-(2-methylpyrimidin-5-yl)-9H-purin-6-yl)indolin-2-one] | 788 nM | 5
18 | Cc1ncc(-c2nc3c(-c4ccc5c(c4)C(C)(NCC(C)(F)F)C(=O)N5)ncnc3n2C)cn1 (single isomer, unassigned) [Compound 2-70, (R or S)-3-((2,2-difluoropropyl)amino)-3-methyl-5-(9-methyl-8-(2-methylpyrimidin-5-yl)-9H-purin-6-yl)indolin-2-one] | 4 nM | >10
19 | CCn1c(-c2cnc(C)nc2)nc2c(-c3ccc4c(c3)C(C)(NCC3(F)COC3)C(=O)N4)ncnc21 (single isomer, unassigned) [Compound 2-71, (R or S)-5-(9-ethyl-8-(2-methylpyrimidin-5-yl)-9H-purin-6-yl)-3-(((3-fluorooxetan-3-yl)methyl)amino)-3-methylindolin-2-one] | 219 nM | >10
20 | CCn1c(-c2cnc(C)nc2)nc2c(-c3ccc4c(c3)C(C)(NCC3(F)COC3)C(=O)N4)ncnc21 (single isomer, unassigned) [Compound 2-72, (R or S)-5-(9-ethyl-8-(2-methylpyrimidin-5-yl)-9H-purin-6-yl)-3-(((3-fluorooxetan-3-yl)methyl)amino)-3-methylindolin-2-one] | 3 nM | >10
21 | CCn1c(-c2cnc(C)nc2)nc2c(-c3ccc4c(c3)C(C)(N3CC(OC)C3)C(=O)N4)ncnc21 (single isomer, unassigned) [Compound 2-78, (R or S)-5-(9-ethyl-8-(2-methylpyrimidin-5-yl)-9H-purin-6-yl)-3-(3-methoxyazetidin-1-yl)-3-methylindolin-2-one] | 238 nM | >10
22 | CCn1c(-c2cnc(C)nc2)nc2c(-c3ccc4c(c3)C(C)(N3CC(OC)C3)C(=O)N4)ncnc21 (single isomer, unassigned) [Compound 2-79, (R or S)-5-(9-ethyl-8-(2-methylpyrimidin-5-yl)-9H-purin-6-yl)-3-(3-methoxyazetidin-1-yl)-3-methylindolin-2-one] | 15 nM | >10
23 | CCn1c(-c2cnc(C)nc2)nc2c(-c3ccc4c(c3)C(C)(N3CC(C)(O)C3)C(=O)N4)ncnc21 (single isomer, unassigned) [Compound 2-80, (R or S)-5-(9-ethyl-8-(2-methylpyrimidin-5-yl)-9H-purin-6-yl)-3-(3-hydroxy-3-methylazetidin-1-yl)-3-methylindolin-2-one] | 7 nM | >10
24 | CCn1c(-c2cnc(C)nc2)nc2c(-c3ccc4c(c3)C(C)(N3CC(C)(O)C3)C(=O)N4)ncnc21 (single isomer, unassigned) [Compound 2-81, (R or S)-5-(9-ethyl-8-(2-methylpyrimidin-5-yl)-9H-purin-6-yl)-3-(3-hydroxy-3-methylazetidin-1-yl)-3-methylindolin-2-one] | 26 nM | >10
